Results taken from publication PMC10926604, “Discovery of a novel small molecule as CD47/SIRPα and PD-1/PD-L1 dual inhibitor for cancer immunotherapy” (Cell Communication and Signaling : CCS, 2024).
“Also recorded” adds a separate entry of the source.

Assays:
[1] = test system: Jurkat cells co-cultured with CHO-K1-hPD-L1 cells; experiment: Co-culture assay, IL-2 secretion of Jurkat cells with CHO-K1-hPD-L1 cells; assay type: cell-based, human; conditions: 50 μM, co-culture with CHO-K1-hPD-L1 cells 48 h
Protocol: Jurkat cells were stimulated with 25 ng/mL of […] (PMA, 16,561–29-8, Sigma) and 1 μg/mL of phytohemag-glutinin (PHA, L8902, Sigma) or 1 μg/mL anti-human CD3 (OKT3, BioGems and 0.5 μg/mL anti-human CD28 (CD28.2, BioGems) for 24 h. Subsequently, they were co-cultured with CHO-K1-hPD-L1 cells at a ratio of 4:1 for 48 h. SMC18 (50 μΜ) and OPBP-1 peptide (100 μM) were added as experimental group and positive control group, respectively. Four hours before the end of the co-culture, protein transport inhibitor (555,029, BD Biosciences) was added. Jurkat cells were collected and stained with anti-human CD45 antibody (HI30, eBioscience) for 30 min. The cells were then fixed and stained with anti-human IL-2-APC (MQ1-17H12, eBioscience) for another 30 min. The fluorescence intensity was analyzed by flow cytometry (BD, FACSCelesta).

[2] = molecular target: hLAG-3/hFGL-1 (Homo sapiens, UniProt P18627+Q08830); experiment: Blockade of other immune checkpoint pathways, LAG-3/FGL-1; assay type: cell-based; conditions: Fig. S2
hLAG-3/hFGL-1, sequence (P18627 23-525): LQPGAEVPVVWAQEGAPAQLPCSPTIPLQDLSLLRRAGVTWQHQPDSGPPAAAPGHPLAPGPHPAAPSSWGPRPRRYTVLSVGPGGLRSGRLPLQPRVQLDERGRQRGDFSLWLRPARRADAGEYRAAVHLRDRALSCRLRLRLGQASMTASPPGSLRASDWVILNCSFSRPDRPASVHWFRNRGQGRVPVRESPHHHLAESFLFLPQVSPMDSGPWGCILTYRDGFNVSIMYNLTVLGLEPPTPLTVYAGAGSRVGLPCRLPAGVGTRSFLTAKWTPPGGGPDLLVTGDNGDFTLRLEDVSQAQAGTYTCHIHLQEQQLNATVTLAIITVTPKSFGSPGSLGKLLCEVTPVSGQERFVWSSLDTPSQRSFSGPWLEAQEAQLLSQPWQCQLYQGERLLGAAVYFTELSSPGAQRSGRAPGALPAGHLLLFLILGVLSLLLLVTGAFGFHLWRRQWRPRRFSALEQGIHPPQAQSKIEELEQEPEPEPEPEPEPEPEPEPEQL
hLAG-3/hFGL-1, sequence (Q08830 23-312): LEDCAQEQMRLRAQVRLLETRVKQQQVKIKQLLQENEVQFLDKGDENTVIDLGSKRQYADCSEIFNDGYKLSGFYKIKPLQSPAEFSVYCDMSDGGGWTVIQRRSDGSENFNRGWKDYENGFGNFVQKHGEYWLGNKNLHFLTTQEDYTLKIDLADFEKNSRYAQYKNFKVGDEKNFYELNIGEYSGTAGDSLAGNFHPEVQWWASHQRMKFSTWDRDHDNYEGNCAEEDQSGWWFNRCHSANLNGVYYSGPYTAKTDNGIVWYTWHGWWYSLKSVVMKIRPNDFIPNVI

[3] = molecular target: T1, murine PD-1/PD-L1 (Mus musculus, UniProt Q9EP73); experiment: Cell-based blocking assay, murine PD-1/PD-L1; conditions: CHO-K1-mPD-1 cells, PD-L1-Fc, flow cytometry; read-out: IC50 for blocking murine PD-1/PD-L1 interaction
T1 construct: purchased Sino Biological 50,010-M02H; host or cells: CHO-K1-mPD-1 cells carry the partner (lentiviral transfection)
T1 sequence (Q9EP73 19-238 limits assumed): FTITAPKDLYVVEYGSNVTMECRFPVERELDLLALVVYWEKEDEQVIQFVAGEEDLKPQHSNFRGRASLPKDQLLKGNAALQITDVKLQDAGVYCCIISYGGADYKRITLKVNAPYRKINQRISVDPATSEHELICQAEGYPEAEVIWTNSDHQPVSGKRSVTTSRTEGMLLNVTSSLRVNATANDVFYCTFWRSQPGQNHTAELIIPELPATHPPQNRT
Protocol: The CHO-K1 cell line with stable expression of CD47 and PD-1 was constructed previously by our group. SMC18 was serially diluted using PBS 7.2 (containing 1% DMSO) and incubated with 100 ng of SIRPα-Fc protein (human: SIA-H5251, mouse: SIA-M5258, ACRO Biosystems) and 50 ng of PD-L1-Fc protein (human: 10,084-H02H, mouse: 50,010-M02H, Sino Biological) on ice for 30 min. The mixture was then added to the corresponding CHO-K1-CD47 or CHO-K1-PD-1 cells and further incubated on ice for 30 min. Afterward, PE-conjugated anti-human IgG (Fc) antibody (A18272, eBioscience) was added. The mean fluorescence intensity (MFI) of the cells was detected using flow cytometry (BD FACSCalibur) and the blocking efficiency was calculated.

[4] = test system: MC38 cells; experiment: MTT assay, MC38 cells; assay type: cell-based, mouse; conditions: 100 µM; 24 h, 48 h, 72 h
Protocol: MC38 and B16-OVA cells were seeded into 96-well plates at a density of 3,000 cells per well, respectively and allowed to adhere overnight. SMC18 was added to the cells and incubated for 24 h, 48 h and 72 h, respectively. Cell viability was measured by adding MTT (3-(4, 5-dimethyl-2-thiazolyl)-2,5-diphenyl-2-H-tetrazolium bromide, 298–93-1, Sigma) solution and incubating for 4 h. The cells were then lysed by shaking with DMSO. The absorbance values at 490 nm were measured using a multi-mode microplate reader (Molecular Devices, SpectraMax iD5).
Fig S3. The Effect of SMC18 on Tumor Cell Proliferation in vitro. MC38 cells (3000 cells/well) and B16-OVA cells (3000 cells/well) were seeded in flat-bottomed 96-well plates and allowed to adhere overnight. Subsequently, the cells were starved for 8 hours in serum-free medium. SMC18 was diluted in complete culture medium and added to the wells, following which the cells were incubated for 24 h, 48 h, and 72 h. After the designated incubation periods, 20 μL of MTT solution was added to each well. Four hours later, the supernatant was aspirated, and 150 μL of DMSO was added to each well to dissolve the MTT formazan product. The plates were then shaken for 10 minutes, and absorbance was measured at 490 nm using a microplate reader.

[5] = test system: PD-1; experiment: Tyrosine phosphorylation assay of PD-1, Jurkat/CHO-K1-hPD-L1 co-culture; assay type: cell-based, human; conditions: 50 μM, stimulated Jurkat with CHO-K1-hPD-L1 cells, 30 min, Western blotting
Protocol: Jurkat cells were stimulated with of PMA (25 ng/mL) and PHA (1 μg/mL) for 24 h. Stimulated Jurkat cells (2 × 10^6 cells/well) were co-cultured with CHO-K1-PD-L1 cells (1 × 10^7 cells/well). The co-cultures were treated with PBS, SMC18 (50 μM), or anti-human PD-1 (a17188b, Biolegend) and incubated at 37℃ for 30 min. After PBS washing, the cells were collected by centrifugation and lysed. Finally, cell lysates were collected for immunoprecipitation and Western blotting.
In brief, the protein samples were separated by SDS-PAGE using a 4% stacking gel and an 8 ~ 10% main gel and transferred to a polyvinylidene difluoride (PVDF) membrane. The membrane was blocked with 5% milk at room temperature for 1–2 h and then incubated with anti-SIRPα (dilution 1:1000, AB8120, Abcam), anti-PD-1 (dilution 1:200, ab52587, Abcam) or anti-Phosphotyrosine (dilution 1:1000, 05–321, Millipore) dissolved in primary antibody dilution buffer overnight at 4 °C. Then the membrane was washed and incubated with appropriate HRP-coupled goat anti-rabbit IgG (D110058, Sangon Biotech) and HRP-coupled goat anti-mouse IgG (D110087, Sangon Biotech) for 1–2 h at room temperature. Finally, the membranes were exposed using an enhanced chemiluminescence (ECL) detection kit (P1030, Applygen). Results were analyzed by ImageJ software (NIH, Bethesda, MD, United States).

[6] = Mouse blood indicators and H&E staining of major organs; assay type: in vivo; conditions: for ALT: NS 45.13 ± 1.55; for AST: NS 187.4 ± 25.5
Protocol: Peripheral blood samples were collected from mice that received intravenous injections of SMC18 (2 or 6 mg/kg) for 2 weeks. The samples were analyzed for whole blood hematological test to detect the indicators of anemia and liver injury. For H&E staining analysis, tumors and the major organs (heart, liver, spleen, lung and kidney) were harvested from tumor-bearing mice. The tissues were then fixed with 4.0% paraformaldehyde for paraffin embedding and processed by H&E staining for histological evaluation. Immunostaining of tumor tissue sections was conducted utilizing anti-mouse CD8α andtibody (53–6.7, eBioscience).

Structure (SMILES): Cc1cc(C)cc(NS(=O)(=O)c2ccc3[nH]cc(C(=O)NCCc4ccccc4)c(=O)c3c2)c1 [SMC18]
- ability of Jurkat cells to secrete IL-2 [1]: effectively restored
- inhibitory effect on hLAG-3/hFGL-1 pathway [2]: no blocking effect; also recorded: did not impede
- IC50 [3]: 71.3 ± 20 µM
- toxicity to MC38 cells (MTT) [4]: non-toxic
- levels of phosphorylated PD-1 [5]: decreased
- ALT ([6]; 2 mg/kg daily for 14 days): 56.57 ± 13.3 U/L
- AST ([6]; 2 mg/kg daily for 14 days): 196.4 ± 20.7 U/L
- ALT ([6]; 6 mg/kg daily for 14 days): 46.83 ± 7.74 U/L
- AST ([6]; 6 mg/kg daily for 14 days): 191.1 ± 23.3 U/L
- content of alanine aminotransferase (ALT) vs control group ([6]; 2 or 6 mg/kg daily for 14 days): no significant differences
- content of aspartate aminotransferase (AST) vs control group ([6]; 2 or 6 mg/kg daily for 14 days): no significant differences
- levels of erythrocytes (RBC count) vs control group ([6]; 2 or 6 mg/kg daily for 14 days): No significant differences
- levels of hemoglobin vs control group ([6]; 2 or 6 mg/kg daily for 14 days): No significant differences
- H&E staining of major organs (heart, liver, spleen, lung, kidney) ([6]; tumor-bearing mice treated with SMC18): no significant damage
